Results taken from patent US20210010031A1, “LENTIVIRAL VECTORS FOR HIGH-TITER TRANSDUCTION OF PRIMARY HUMAN CELLS” (priority 2018, published 2021).

Columns and labels:
[1] = molecular target: HA-tagged FAM208A (Homo sapiens, UniProt Q9UK61); assay: Co-immunoprecipitation of HA-FAM208A with FLAG-Vpx in HEK293 cells; format: binding; settings: versus untreated cells with wild-type SIVMAC251 Vpx (FIG. 17H)
Source text: Degradation of SAMHD1 requires direct interaction with Vpx or Vpr. To determine if Vpx similarly associates with proteins of the HUSH complex, HA-tagged FAM208A was co-transfected into HEK293 cells with FLAG-tagged SIVMAC251 Vpx or SIVRCM02CM8081 Vpx. When anti-FLAG antibody was used to immunoprecipitate either of the two Vpx proteins from the soluble cell lysate, HA-FAM208A was detected in the immunoprecipitate (FIG. 17H). The strength of the FAM208A signal in the Vpx pull-out increased when the co-transfected HEK293 cells were incubated with the proteasome inhibitor PR171, or when wild-type SIVMAC251 Vpx was replaced in the transfection by a mutant (Q76A) that is incapable of binding DCAF1 (FIG. 17H and FIGS. 21D and 21E).
Cells were washed in PBS, counted, normalized for cell number, and lysed directly in 1×SDS-PAGE sample buffer. Samples were run on NuPage 4-12% Bis-Tris gels followed by blotting onto nitrocellulose membranes. Primary antibodies used: FAM208A (Atlas, HPA00875), MPHOSPH8 (Proteintech, 16796-1-AP), PPHLN1 (Sigma, HPA038902), SETDB1 (Proteintech 11231-1-AP), DCAF1 (Proteintech, 11612-1-AP), FLAG (Novus, NB600-345), FLAG (Sigma, F1804, used for IP), and HA (Biolegend, 901501).

[2] = system: Jurkat LTR-gfp cells; assay: HIV-1 LTR-gfp provirus pool in Jurkat T cells; format: cell-based, human; settings: four weeks after transduction with LTR-GFP (FIG. 22B)
Source text: J-Lat A1 was selected to have a silent HIV-1 LTR-driven provirus with the ability to reactivate in response to TNFα^31. The unique provirus within a clone such as J-Lat A1 may be sensitive to position-dependent silencing effects and therefore may not accurately reflect the sensitivity of a population of HIV-1 proviruses to transcriptional activation by Vpx or to silencing by FAM208A. To address the effect of Vpx and FAM208A on a population of proviruses with diverse integration sites, Jurkat T cells were transduced with an HIV-1 LTR driven reporter vector (LTR-gfp) that retains complete LTRs, tat, and rev, but has a frameshift mutation in env, an ngfr reporter gene in place of nef, and gfp in place of gag, pol, vif, and vpr (FIG. 18D). Four weeks after transduction with LTR-GFP, the presence of latent proviruses within the pool of Jurkat cells was confirmed by reactivation with either TNFα or TCR-stimulation (FIG. 22B). […] Compared with control cells, vpx or FAM208A knockdown increased the percentage of GFP cells, whether cells were treated with TNFα or not (FIGS. 18E and 18F). […] Additionally, expression vectors for SIVMND25440 Vpx, SIVRCM02CM8081 Vpx, SIVMND1GB1 Vpr, or […]1 Vpr all increased GFP expression in Jurkat LTR-gfp cells (FIG. 22C). […]
Cells were fixed in BD Cytofix Buffer prior to data acquisition on a BD C6 Accuri. Data was analyzed in FlowJo.

HA-tagged FAM208A, sequence (Q9UK61 whole entry): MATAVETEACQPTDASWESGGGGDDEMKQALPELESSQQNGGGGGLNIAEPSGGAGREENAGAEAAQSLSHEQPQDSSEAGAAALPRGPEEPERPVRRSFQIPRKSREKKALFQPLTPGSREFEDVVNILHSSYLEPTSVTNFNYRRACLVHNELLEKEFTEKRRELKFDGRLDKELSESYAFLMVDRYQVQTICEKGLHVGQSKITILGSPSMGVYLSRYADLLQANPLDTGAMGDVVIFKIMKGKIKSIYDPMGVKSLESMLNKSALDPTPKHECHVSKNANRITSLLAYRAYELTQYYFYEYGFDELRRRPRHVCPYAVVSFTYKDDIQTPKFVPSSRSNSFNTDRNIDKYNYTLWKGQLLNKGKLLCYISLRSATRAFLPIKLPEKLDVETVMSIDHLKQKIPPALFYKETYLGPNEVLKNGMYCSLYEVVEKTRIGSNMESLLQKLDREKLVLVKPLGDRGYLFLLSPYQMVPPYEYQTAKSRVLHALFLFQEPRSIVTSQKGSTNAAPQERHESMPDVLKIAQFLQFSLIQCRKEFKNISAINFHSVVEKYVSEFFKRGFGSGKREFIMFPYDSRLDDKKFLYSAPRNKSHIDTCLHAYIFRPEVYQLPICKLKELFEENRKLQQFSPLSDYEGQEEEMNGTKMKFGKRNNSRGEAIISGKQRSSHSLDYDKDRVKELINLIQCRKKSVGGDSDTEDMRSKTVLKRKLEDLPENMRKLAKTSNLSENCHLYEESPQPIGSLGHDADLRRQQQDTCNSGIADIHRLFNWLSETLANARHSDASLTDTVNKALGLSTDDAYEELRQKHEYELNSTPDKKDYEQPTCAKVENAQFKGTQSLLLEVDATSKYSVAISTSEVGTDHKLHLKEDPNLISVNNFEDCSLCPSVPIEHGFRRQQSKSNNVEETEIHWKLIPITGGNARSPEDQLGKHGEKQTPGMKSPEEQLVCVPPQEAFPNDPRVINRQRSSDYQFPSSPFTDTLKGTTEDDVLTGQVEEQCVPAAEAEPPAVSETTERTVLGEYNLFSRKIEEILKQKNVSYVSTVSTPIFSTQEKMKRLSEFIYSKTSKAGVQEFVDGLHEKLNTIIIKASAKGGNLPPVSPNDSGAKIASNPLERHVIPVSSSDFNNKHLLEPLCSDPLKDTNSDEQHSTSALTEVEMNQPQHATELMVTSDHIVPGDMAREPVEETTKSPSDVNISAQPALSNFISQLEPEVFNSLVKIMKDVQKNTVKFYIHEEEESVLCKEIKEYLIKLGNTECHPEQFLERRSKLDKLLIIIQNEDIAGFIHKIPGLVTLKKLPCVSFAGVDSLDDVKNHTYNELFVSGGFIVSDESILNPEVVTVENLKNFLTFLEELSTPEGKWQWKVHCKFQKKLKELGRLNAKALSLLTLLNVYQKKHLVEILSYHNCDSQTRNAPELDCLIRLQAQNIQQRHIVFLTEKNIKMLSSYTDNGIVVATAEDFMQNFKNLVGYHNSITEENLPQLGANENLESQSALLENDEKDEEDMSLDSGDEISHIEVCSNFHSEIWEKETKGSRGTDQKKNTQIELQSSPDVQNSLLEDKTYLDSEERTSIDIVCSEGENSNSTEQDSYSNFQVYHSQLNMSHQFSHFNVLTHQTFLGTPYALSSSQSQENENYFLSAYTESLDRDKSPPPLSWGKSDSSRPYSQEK

| Molecule | strength of the FAM208A signal in the Vpx pull-out [1] | reactivation of latent proviruses [2] |
| --- | --- | --- |
| CC(C)C[C@H](NC(=O)[C@H](CCc1ccccc1)NC(=O)CN1CCOCC1)C(=O)N[C@@H](Cc1ccccc1)C(=O)N[C@@H](CC(C)C)C(=O)[C@@]1(C)CO1 [PR171] | increased |  |
| TNFα |  | reactivation |
